Data on 18 compounds can be found in patent publication US4115569A, “Cyclic diamine derivatives” (Hoechst Aktiengesellschaft, priority 1971, dated 1978).

SMILES strings stand for the structures. Converted amounts (≈) assume the structure as drawn. Counter-ions that a name gives are not always drawn. Where only a bound is given, the exact number is not on record here.

The test system of one series is filaria. Particulars: in vivo; cited from earlier work.
Another series relates to dictyocaulus. To be noted: in vivo; cited from earlier work.
For series [1], the system named is isolated guinea pig intestine (histamine). Briefly: spasmolytic action against histamine on the isolated guinea pig intestine. Further details: key to Spasmolytic action against Histamine (ED50): (--): reduction of 10%; --: reduction of 25%; ----: reduction of 50%; .phi.: substantially no action. To be noted: histamine 10^-7 g/ml; for IC50: Cavia porcellus, read-out: Spasmolytic action against Histamine (ED50). The protocol:
(§1) The compounds according to the invention were also tested for their influence on coronary through-flow on the heart mechanogram and for their spasmolytic action.
(§2) The latter test was performed on the isolated guinea pig intestine by the method of R. Magnus ("Pflugers Archiv" Vol 102 (1904) p 123).

The next series deals with reserpine ptosis. Briefly: reserpine antagonism (reserpine ptosis test). Type of series: in vivo. To be noted: for change in vivo at 25 mg/kg: po, 1 hr after 25 mg/kg of substance orally, read-out: % Influence on reserpine ptosis. The protocol: The therapeutic activity of compounds according to the invention was determined by measurement of reserpine antagonism (B. Rubin et al., "J. Pharmacol. exp. Therap." Vol 120 (1957) p 125) and by the effect on the fighting behaviour of fighting mice in the test arrangement of G. Y. Yen et al., (Arch. Int. Pharmacodyn, Vol 123 (1959) p 179).

In another series the test system is heart. Briefly: influence on the heart mechanogram (heart muscle force). More on the design: key to Action on the heart mechanogram: (--): reduction of 10%; --: reduction of 25%; ----: reduction of 50%; .phi.: substantially no action. How it is done:
The compounds according to the invention were also tested for their influence on coronary through-flow on the heart mechanogram and for their spasmolytic action. […]

For a further series, the system named is coronary vessels. The experiment in a line: influence on coronary through-flow. How it is done: as §1
The test system of series [2] is isolated guinea pig intestine (BaCl2). Briefly: spasmolytic action against barium chloride on the isolated guinea pig intestine. More on the design: key to Spasmolytic action against BaCl2 (ED50): (--): reduction of 10%; --: reduction of 25%; ----: reduction of 50%; .phi.: substantially no action. Particulars: barium chloride 10^-4 mg/ml; for IC50: Cavia porcellus, read-out: Spasmolytic action against BaCl2 (ED50). How it is done:
as §1, §2

For series [3], the system named is isolated guinea pig intestine (acetylcholine). The experiment in a line: spasmolytic action against acetylcholine on the isolated guinea pig intestine. More on the design: key to Spasmolytic action against Acetylcholine (ED50): (--): reduction of 10%; --: reduction of 25%; ----: reduction of 50%; .phi.: substantially no action. Particulars: acetylcholine 10^-7 g/ml; for IC50: Cavia porcellus, read-out: Spasmolytic action against Acetylcholine (ED50). The protocol: as §1, §2

The nature of a further series: acute toxicity (LD50). Particulars: in vivo.

As to `CCN(CC)C(=O)N1CCN(C)CC1` [4-methylpiperazinocarboxylic acid-(1)-diethylamide citrate], in the series on filaria, the “use against filaria infections” value is given as “successfully used against filaria”. In addition, the “use against dictyocaulus infections” value with dictyocaulus is recorded as “successfully used”.
Broadly, the LD50 is the dose expected to kill half of the subjects tested. In the case of `O=C(c1cc2ccccc2o1)N1CCN(Cc2ccccc2)CC1` [Compound 1, N-Benzyl-coumarillic acid piperazide], the results for the IC50 in [1], in series [2] and in series [3] were 1 to 10 µg/mL (≈ 3.12 to 31.2 µM), 1 to 10 µg/mL (≈ 3.12 to 31.2 µM) and 10 µg/mL (≈ 31.2 µM), respectively. Further, in the series on reserpine ptosis, the change in vivo at 25 mg/kg was -50%. Further, the “Action on the heart mechanogram” value with heart (dose 10 (82 g)) is reported as “.phi”; with heart (dose 30 (82 g)) it was “.phi”; in the series on heart (dose 100 (82 g)), “-- (reduction of 25%)”. Further, the “reduction of the heart muscle force” value with heart (dose of 100 μg) was found to be 25%. Further, the “action on coronary flow / coronary vessels (in words)” value in the series with coronary vessels is on record as “considerable increase in the coronary through-flow without subsequent contraction of the vessel”. Further, the “Coronary through-flow: Duration (initial or only value)” value with coronary vessels (dose 10 (82 g)) amounted to 0.5 min; in the series on coronary vessels (dose 30 (82 g)), 1.0 min; with coronary vessels (dose 100 (82 g)) it was 26.0 min. For the same compound, the figures for the “Coronary through-flow: Change (initial or only value)” value in the series on coronary vessels (dose 30 (82 g)) and in the series on coronary vessels (dose 100 (82 g)) were “+38%” and “+120%”, respectively. The LD50 came out at 320 mg/kg in the series “acute toxicity (LD50)” (ip, i.p. mouse) and 2050 mg/kg in the series “acute toxicity (LD50)” (po, orally, mouse).
With `O=C(c1cc2ccccc2o1)N1CCN(Cc2ccc(Cl)cc2)CC1` [Compound 2, N-(4-chloro)-benzyl-coumarillic acid piperazide], the IC50 in [1] and in series [2] was 1 to 10 µg/mL (≈ 2.82 to 28.2 µM) each time. In addition, the “Spasmolytic action against Acetylcholine (ED50)” value in [3] was “>”.
As to `O=C(c1cc2ccccc2o1)N1CCN(Cc2ccc(Cl)c(Cl)c2)CC1` [Compound 3, N-(3,4-dichlorobenzyl)-coumarillic acid piperazide], the change in vivo at 25 mg/kg in the series on reserpine ptosis is -22%. In addition, the LD50 in “acute toxicity (LD50)” (ip, i.p. mouse) is 1000 to 1500 mg/kg.
Taken in the same sequence, the figures for `O=C(c1cc2ccccc2o1)N1CCN(Cc2ccc(F)cc2)CC1` [Compound 5, N-(4-fluorobenzyl)-coumarillic acid piperazide] were -50% and 100 to 250 mg/kg.
As to `O=C(c1cc2ccccc2o1)N1CCN(Cc2cccs2)CC1` [Compound 16, N-thenyl-coumarillic acid piperazide], in series [1], the “Spasmolytic action against Histamine (ED50)” value is reported as “.phi”. Also, the change in vivo at 25 mg/kg with reserpine ptosis is -54%. Also, the “Spasmolytic action against BaCl2 (ED50)” value in series [2] was “.phi”. Further, in series [3], the “Spasmolytic action against Acetylcholine (ED50)” value was “.phi”. The LD50 in the series “acute toxicity (LD50)” (ip, i.p. mouse) is 100 to 250 mg/kg; in the series “acute toxicity (LD50)” (po, orally, mouse), 1980 mg/kg.
As for `O=C(c1cc2ccccc2o1)N1CCCN(Cc2ccccc2)CC1` [Compound 17, N-benzyl-coumarillic acid homopiperazide], the “Action on the heart mechanogram” value in the series on heart (dose 10 (82 g)) and in the series on heart (dose 30 (82 g)) was “.phi” in each case. The “Coronary through-flow: Change (initial or only value)” value in the series on coronary vessels (dose 10 (82 g)) is “+8%”; with coronary vessels (dose 30 (82 g)) it was “+25%”. In addition, the “Coronary through-flow: Duration (initial or only value)” value in the series on coronary vessels (dose 10 (82 g)) and with coronary vessels (dose 30 (82 g)) was 1.0 min each time.
Consider `O=C(C1Cc2ccccc2O1)N1CCN(Cc2ccccc2)CC1` (stereo not shown) [Compound 20, N-benzyl-2,3-dihydrocoumarillic acid piperazide], for which the IC50 in series [1] was determined as 1 µg/mL (≈ 3.1 µM); in series [2] it was 0.3 µg/mL (≈ 0.93 µM); in series [3], 3 µg/mL (≈ 9.3 µM). The change in vivo at 25 mg/kg in the series with reserpine ptosis was -32%. Moreover, the “Coronary through-flow: Change (initial or only value)” value in the series on coronary vessels (dose 10 (82 g)) is listed as “+25%”; in the series with coronary vessels (dose 50 (82 g)) it was “+50%”. The compound also returned an LD50 in “acute toxicity (LD50)” (ip, i.p. mouse) of 100 to 150 mg/kg.
`O=C(c1ccco1)N1CCN(Cc2ccccc2)CC1` [Compound 21, N-benzyl-furan-2-carboxylic acid piperazide]: the IC50 in [1] was determined as 0.1 µg/mL (≈ 0.37 µM). For the same compound, the “Spasmolytic action against BaCl2 (ED50)” value in series [2] is “.phi”. For the same compound, in series [3], the “Spasmolytic action against Acetylcholine (ED50)” value is “.phi”.
For the compound `O=C(c1ccco1)N1CCN(Cc2ccc(Cl)c(Cl)c2)CC1` [Compound 22, N-3,4-dichlorobenzyl-furan-2-carboxylic acid piperazide], the change in vivo at 25 mg/kg with reserpine ptosis was -23%. For the same compound, the median lethal dose (LD50) in “acute toxicity (LD50)” (ip, i.p. mouse) is 250 to 500 mg/kg.
As to `CC1=C(C(=O)N2CCN(Cc3ccccc3)CC2)CCCO1` [Compound 24, N-benzyl-[6-methyl-2,3-dihydropyran-5-carboxylic acid]piperazide], in [1], the “Spasmolytic action against Histamine (ED50)” value was “.phi”. For the same compound, the “Spasmolytic action against BaCl2 (ED50)” value in [2] is reported as “.phi”. Further, the “Spasmolytic action against Acetylcholine (ED50)” value in [3] is reported as “.phi”.
For the compound `CC1=C(C(=O)N2CCN(Cc3ccc(Cl)c(Cl)c3)CC2)CCCO1` [Compound 25, N-3,4-dichlorobenzyl-[6-methyl-2,3-dihydropyran-5-carboxylic acid]-piperazide], the IC50 in [1] was 1 to 10 µg/mL (≈ 2.71 to 27.1 µM); in [2], more than 10 µg/mL; in series [3], 1 to 10 µg/mL (≈ 2.71 to 27.1 µM). The “Action on the heart mechanogram” value in the series with heart (dose 6 (82 g)) was “(--) (reduction of 10%)”. Moreover, in the series with heart (dose of 30 μg), the “reduction of the heart muscle force” value is on record as “less than 25%”. In addition, the “Coronary through-flow: Duration (initial or only value)” value amounted to 8.0 min in the series on coronary vessels (dose 6 (82 g)) and 27.0 min in the series with coronary vessels (dose 30 (82 g)). For the same compound, the “Coronary through-flow: Change (initial or only value)” value in the series on coronary vessels (dose 30 (82 g)) is “+31%”.
As for `CC1=C(C(=O)N2CCN(Cc3c(C)cc(C)cc3C)CC2)CCCO1` [Compound 26, N-(2,4,6-Trimethylbenzyl)-N-2-methyl-5,6-dihydro-pyran-3-carbonyl-piperazine-hydrochloride], in the series with coronary vessels (dose 30 (82 g)), the “Coronary through-flow: Change (initial or only value)” value is given as “+13%” and the “Coronary through-flow: Duration (initial or only value)” value is listed as 5 min. Further, in the series on coronary vessels (dose 100 (82 g)), the “Coronary through-flow: Change (initial or only value)” value is “+21%” and the “Coronary through-flow: Duration (initial or only value)” value was more than 12 min.
Consider `CC1=C(C(=O)N2CCN(Cc3cccs3)CC2)CCCO1` [Compound 28], for which the “Spasmolytic action against Histamine (ED50)” value in series [1] was “.phi”. Moreover, in series [2], the “Spasmolytic action against BaCl2 (ED50)” value was “.phi”. For the same compound, in series [3], the “Spasmolytic action against Acetylcholine (ED50)” value was “.phi”.
Take `CC1OCCCC1C(=O)N1CCN(Cc2ccccc2)CC1` (stereo not shown) [Compound 29, N-benzyl-[6-methyl-tetrahydropyran-5-carboxylic acid]-piperazide]: the IC50 in [1], in series [2] and in series [3] was more than 10 µg/mL throughout.
As for `O=C(c1cc2ccccc2[nH]1)N1CCN(Cc2ccccc2)CC1` [Compound 30, N-Benzyl-indole-2-carboxylic acid piperazide], in the series on coronary vessels (dose 10 (82 g)), the “Coronary through-flow: Change (initial or only value)” value was “+90%” and the “Coronary through-flow: Duration (initial or only value)” value came out at 12 min.
As for `O=C(c1cccs1)N1CCN(Cc2cccs2)CC1` [Compound 42], in the series with reserpine ptosis, the change in vivo at 25 mg/kg is -49%. Also, in the series “acute toxicity (LD50)” (ip, i.p. mouse), the 50% lethal dose (LD50) is 100 to 250 mg/kg.
On to `CN(C)CCCN1c2ccccc2CCc2ccccc21` [Imipramine, 5-(3'-dimethylaminopropyl)-10-11-dihydro-5-H-dibenz-[b,f]-azepine hydrochloride, reference compound], for which the values for the IC50 in series [1], in series [2] and in series [3] were 0.001 µg/mL, 0.1 to 1 µg/mL and 0.01 to 0.1 µg/mL, respectively. The “activity in reserpine test (in words)” value in the series on reserpine ptosis (in vivo) is on record as “high activity”. Besides, in the series on reserpine ptosis, the change in vivo at 25 mg/kg is -76%. For the same compound, the “Action on the heart mechanogram” value is given as “-- (reduction of 25%)” with heart (dose 10 (82 g)), “-- (reduction of 25%)” with heart (dose 20 (82 g)) and “---- (reduction of 50%)” in the series on heart (dose 30 (82 g)). Further, the “reduction of the heart muscle force” value in the series with heart (dose of 10 μg) amounted to 25%; in the series with heart (dose of 20 μg), 25%; in the series on heart (dose of 30 μg), 50%. Moreover, in the series with coronary vessels, the “action on coronary flow / coronary vessels (in words)” value was “initially a brief rise in coronary flow but this changes into a long contraction, and thus damages the heart”. Moreover, the “Coronary through-flow: Change (initial or only value)” value is “+19%” with coronary vessels (dose 10 (82 g)), “+28%” with coronary vessels (dose 20 (82 g)) and “+84%” in the series on coronary vessels (dose 30 (82 g)). The “Coronary through-flow: Change (second value, subsequent contraction)” value in the series on coronary vessels (dose 10 (82 g)) is on record as -18%; with coronary vessels (dose 20 (82 g)), -29%; with coronary vessels (dose 30 (82 g)), -22%. For the same compound, the “Coronary through-flow: Duration (initial or only value)” value in the series on coronary vessels (dose 10 (82 g)) is 0.5 min; with coronary vessels (dose 20 (82 g)), 0.6 min. For the same compound, the entries for the “Coronary through-flow: Duration (second value, subsequent contraction)” value in the series on coronary vessels (dose 10 (82 g)), with coronary vessels (dose 20 (82 g)) and in the series with coronary vessels (dose 30 (82 g)) were 21 min, 26 min and more than 10 min, respectively.
